Test results published in patent publication US20240190874A1, “SMALL MOLECULE DEGRADERS OF ANDROGEN RECEPTOR” (THE REGENTS OF THE UNIVERSITY OF MICHIGAN, priority 2021, published 2024).

Legend:
Type in all cases: cell-based
AR = target: T1, AR (Homo sapiens, UniProt P10275); experiment: Degradation of AR in VCaP cells; settings: VCaP cells; for Dmax: VCaP
T1 construct: Degradation of AR; Cellular potency; host or cells: VCaP cells
T1 sequence (P10275 1-920): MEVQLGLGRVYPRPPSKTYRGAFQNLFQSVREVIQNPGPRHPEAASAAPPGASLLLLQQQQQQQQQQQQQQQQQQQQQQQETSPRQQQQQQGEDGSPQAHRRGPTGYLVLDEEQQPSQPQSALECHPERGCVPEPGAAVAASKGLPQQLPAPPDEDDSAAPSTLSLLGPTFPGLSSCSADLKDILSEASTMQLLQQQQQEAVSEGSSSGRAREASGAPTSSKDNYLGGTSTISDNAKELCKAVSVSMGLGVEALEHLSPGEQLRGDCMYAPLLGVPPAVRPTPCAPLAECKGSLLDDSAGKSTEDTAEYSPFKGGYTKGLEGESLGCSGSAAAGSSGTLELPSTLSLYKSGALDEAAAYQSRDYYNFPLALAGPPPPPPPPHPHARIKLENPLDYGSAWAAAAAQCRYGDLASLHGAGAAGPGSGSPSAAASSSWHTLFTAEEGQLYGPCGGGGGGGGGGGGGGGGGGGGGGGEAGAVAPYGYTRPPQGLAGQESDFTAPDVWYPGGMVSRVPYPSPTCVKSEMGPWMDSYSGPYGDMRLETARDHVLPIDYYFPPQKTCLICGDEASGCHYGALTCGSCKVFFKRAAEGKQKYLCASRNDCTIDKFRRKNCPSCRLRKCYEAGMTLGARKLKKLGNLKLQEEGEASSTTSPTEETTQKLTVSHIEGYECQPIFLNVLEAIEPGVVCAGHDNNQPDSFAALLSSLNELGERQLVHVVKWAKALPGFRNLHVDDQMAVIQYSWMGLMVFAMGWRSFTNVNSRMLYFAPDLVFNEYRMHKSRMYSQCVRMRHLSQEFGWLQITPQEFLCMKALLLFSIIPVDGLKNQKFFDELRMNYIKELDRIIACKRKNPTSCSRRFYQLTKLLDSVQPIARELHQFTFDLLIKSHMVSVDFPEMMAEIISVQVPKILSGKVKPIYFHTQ
Method: (§1) Biological Assays. LNCaP and VCaP cells used were purchased from American Type Culture Collection (ATCC). LNCaP were grown in RPMI 1640 (Invitrogen) and VCaP cells were grown in DMEM with Glutamax (Invitrogen). All of the cells were supplemented with 10% fetal bovine serum (Invitrogen) at 37° C. in a humidified 5% CO2 incubator.

VCaP cells = experiment: Cellular potency (IC50) in VCaP cells; settings: Homo sapiens, VCaP
Method: as §1

LNCaP cells = experiment: Cellular potency (IC50) in LNCaP cells; settings: Homo sapiens, LNCaP
Method: as §1

SMILES	DC50 (AR)	Dmax (AR)	IC50 (VCaP cells)	IC50 (LNCaP cells)
C[C@H]1CC2(CCN(c3ccc(OC4CN(C5CN(c6ccc7c(c6)C(=O)N(C6CCC(=O)NC6=O)C7=O)C5)C4)nc3)CC2)CN1c1ccc(C#N)c(Cl)c1 (stereo partly drawn) [compound 71]	< 100 nM	50 to 70%	< 1000 nM	< 1000 nM
C[C@H]1CC2(CCN(c3ccc(N4CC(N(C)C5CN(c6ccc7c(c6)C(=O)N(C6CCC(=O)NC6=O)C7=O)C5)C4)cc3)CC2)CN1c1ccc(C#N)c(Cl)c1 (stereo partly drawn) [compound 121]	< 100 nM	70 to 90%	< 100 nM	< 100 nM
C=C1CCC(N2C(=O)c3ccc(N4CCC(CN5CCN(c6ccc(N7CCC8(CC7)C[C@H](C)N(c7ccc(C#N)c(Cl)c7)C8)c(F)c6)CC5)CC4)cc3C2=O)C(=O)N1 (stereo partly drawn) [compound 38]	–	> 90%	< 10 nM	< 10 nM
C[C@H]1CC2(CCN(c3ccc(CN4CCC(N5CCN(c6ccc7c(c6)C(=O)N(C6CCC(=O)NC6=O)C7=O)CC5)CC4)cn3)CC2)CN1c1ccc(C#N)c(Cl)c1 (stereo partly drawn) [compound 166]	< 10 nM	–	< 10 nM	< 100 nM
C[C@H]1CC2(CCN(c3ccc(S(=O)(=O)N4CCC(CN5Cc6cc7c(cc6C5)C(=O)N(C5CCC(=O)NC5=O)C7=O)CC4)cc3)CC2)CN1c1ccc(C#N)c(Cl)c1 (stereo partly drawn) [compound 3]	< 1 nM	> 90%	< 10 nM	< 10 nM
